Measurements published in patent publication US20130039951A1, “Process Of Preparing A Stabilized And Solubilized Formulation Of Sirolimus Derivatives” (DONG-A PHARM. CO., LTD., priority 2011, published 2013).

Assays:
[1] = Elution test of tablets in distilled water, paddle method, HPLC; assay type: physicochemical; conditions: 900 mL distilled water, 37.5° C., 10 mg everolimus, after 1 hour
Procedure: The granules of the examples were mixed with pharmaceutical excipients as set forth in Table 1 and then tableted to give a tablet. A direct compressing method was used to prepare a tablet comprising 10 mg of a sirolimus derivative with a hardness of 13 to 15 Kp. However, the formulation prepared from Comparative Example 1 had difficulties in being mixed with the pharmaceutical excipients of Table 1 and also met with an obstacle in a tableting process so that it was subjected to an additional milling process and controlled to have a granularity of 200 to 300 μm before being mixed with the excipients and tableted.
The tablets as obtained were evaluated for their elution property. 900 mL of an elution liquid (distilled water) was put into an elution tester and the granules as obtained in Examples 1 to 6 were taken in an amount corresponding to a dosage of 10 mg of everolimus and subjected to an elution test at 37.5° C. with 50 cycles per a minute by using a paddle method for 2 hours. For each […] taken in accordance with a predetermined schedule, the concentration of everolimus in the elution liquid was quantified by using a high performance liquid chromatography. […]

[2] = Stability: storage in glass vial at 80° C. for 60 hours, drug content by HPLC; assay type: physicochemical
Procedure: For Examples 1 to 6 and Comparative Examples 2 and 3, their stability was evaluated and the results were compared. Each of the samples was placed in a glass vial and stored at 80° C. for 60 hours, and then the content of the drug was quantified by using a high performance liquid chromatography.

elution rate of everolimus [1]: about 37%
content after being left for 60 hours ([2]; 80° C., 60 hours): 23.5%
Content, initial ([2]; before storage): 100.4 wt %
Content, After 60 hours ([2]; stored at 80° C. for 60 hours in glass vial): 23.5 wt %
SMILES: CO[C@H]1C[C@@H]2CC[C@@H](C)[C@@](O)(O2)C(=O)C(=O)N2CCCC[C@H]2C(=O)O[C@H]([C@H](C)C[C@@H]2CC[C@@H](OCCO)[C@H](OC)C2)CC(=O)[C@H](C)/C=C(\C)[C@@H](O)[C@@H](OC)C(=O)[C@H](C)C[C@H](C)/C=C/C=C/C=C/1C [Comparative Example 2, 40-O hydroxyethyl rapamycin]
